Experiments:
rape = assay: Postemergent control of plant species; format: in vivo, Brassica napus; conditions: Brassica napus, post-emergence, 336 h, read-out: percent postemergent control
Procedure, shortened: (§1)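 Each compound is dissolved in acetone, mixed with an equal volume of 0.1% surfactant water, and sprayed on plants grown to 2-4 leaves in nutrient soil. Treated and untreated beds sit under identical greenhouse temperature and light for roughly two weeks before growth reduction is rated.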

soybean = assay: Postemergent control of plant species; format: in vivo, Glycine max.; conditions: Glycine max, post-emergence, 336 h, read-out: percent postemergent control
Procedure, shortened: as §1

cocklebur = assay: Postemergent control of plant species; format: in vivo, Xanthium spp.; conditions: Xanthium strumarium, post-emergence, 336 h, read-out: percent postemergent control
Procedure, shortened: as §1

pigweed = assay: Postemergent control of plant species; format: in vivo, Amaranthus spp.; conditions: Amaranthus retroflexus, post-emergence, 336 h, read-out: percent postemergent control
Procedure, shortened: as §1

velvetleaf = assay: Postemergent control of plant species; format: in vivo, Abutilon theophrasti; conditions: Abutilon theophrasti, post-emergence, 336 h, read-out: percent postemergent control
Procedure, shortened: as §1

rice [1] = assay: Postemergent control of plant species; format: in vivo, Oryza sativa; conditions: Oryza sativa, post-emergence, 336 h, read-out: percent postemergent control
Procedure, shortened: as §1

wheat [2] = assay: Postemergent control of plant species; format: in vivo, Triticum aestivum; conditions: Triticum aestivum, post-emergence, 336 h, read-out: percent postemergent control
Procedure, shortened: as §1

barnyardgrass [3] = assay: Postemergent control of plant species; format: in vivo, Echinochloa crusgalli; conditions: Echinochloa crus-galli, post-emergence, 336 h, read-out: percent postemergent control
Procedure, shortened: as §1

crabgrass = assay: Postemergent control of plant species; format: in vivo, Digitaria spp.; conditions: Digitaria sanguinalis, post-emergence, 336 h, read-out: percent postemergent control
Procedure, shortened: as §1

yellow foxtail [4] = assay: Postemergent control of plant species; format: in vivo, Setaria lutescens; conditions: Setaria, post-emergence, 336 h, read-out: percent postemergent control
Procedure, shortened: as §1

johnson grass = assay: Postemergent control of plant species; format: in vivo, Sorghum halepense; conditions: Sorghum halepense, post-emergence, 336 h, read-out: percent postemergent control
Procedure, shortened: as §1

wild oats [5] = assay: Postemergent control of plant species; format: in vivo, Avena fatua; conditions: Avena fatua, post-emergence, 336 h, read-out: percent postemergent control
Procedure, shortened: as §1

cotton = assay: Preemergent control of plant species; format: in vivo, Gossypium spp.; conditions: Gossypium hirsutum, pre-emergence, 336 h; 0.25 lb/acre; read-out: percent preemergent control
Procedure, shortened: (§2)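 Preemergent application of aqueous emulsions at rates given in the table, uniformly over seeded greenhouse soil. Untreated (water) beds as comparison; rating after 2 weeks as reduction in growth.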

sugar beet = assay: Preemergent control of plant species; format: in vivo, Beta saccharifera; conditions: Beta vulgaris, pre-emergence, 336 h; 0.25 lb/acre; read-out: percent preemergent control
Procedure, shortened: as §2

jimsonweed = assay: Preemergent control of plant species; format: in vivo, Datura stramonium; conditions: Datura stramonium, pre-emergence, 336 h; 0.25 lb/acre; read-out: percent preemergent control
Procedure, shortened: as §2

annual morning glory = assay: Preemergent control of plant species; format: in vivo, Ipomoea spp.; conditions: Ipomoea, pre-emergence, 336 h; 0.25 lb/acre; read-out: percent preemergent control
Procedure, shortened: as §2

corn = assay: Preemergent control of plant species; format: in vivo, Zea mays; conditions: Zea mays, pre-emergence, 336 h; 0.25 lb/acre; read-out: percent preemergent control
Procedure, shortened: as §2

rice [6] = assay: Preemergent control of plant species; format: in vivo, Oryza sativa; conditions: Oryza sativa, pre-emergence, 336 h; 0.25 lb/acre; read-out: percent preemergent control
Procedure, shortened: as §2

wheat [7] = assay: Preemergent control of plant species; format: in vivo, Triticum aestivum; conditions: Triticum aestivum, pre-emergence, 336 h; 0.25 lb/acre; read-out: percent preemergent control
Procedure, shortened: as §2

barnyardgrass [8] = assay: Preemergent control of plant species; format: in vivo, Echinochloa crusgalli; conditions: Echinochloa crus-galli, pre-emergence, 336 h; 0.25 lb/acre; read-out: percent preemergent control
Procedure, shortened: as §2

wild oats [9] = assay: Preemergent control of plant species; format: in vivo; conditions: Avena fatua, pre-emergence, 336 h; 0.25 lb/acre; read-out: percent preemergent control
Procedure, shortened: as §2

yellow foxtail [10] = assay: Preemergent control of plant species; format: in vivo, Setaria lutescens; conditions: Setaria, pre-emergence, 336 h; 0.25 lb/acre; read-out: percent preemergent control
Procedure, shortened: as §2

yellow nutsedge = assay: Preemergent control of plant species; format: in vivo, Cyperus esculentus; conditions: Cyperus, pre-emergence, 336 h; 0.25 lb/acre; read-out: percent preemergent control
Procedure, shortened: as §2

[11] = system: nitrification of ammonium nitrogen; assay: Suppression of nitrification of ammonium nitrogen in soil; conditions: 27° C.
Procedure, shortened: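 Soil (20 g) moistened to its 1/3 bar tension value, mixed with test chemical and incubated sealed for two weeks at 27° C. Nitrate extracted with ammonium sulfate solution and measured by nitrate-specific ion electrode; value given as % NH4-N remaining.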

SMILES	plant injury at 500 ppm (rape) [%]	plant injury at 500 ppm (soybean) [%]	pest or weed control at 500 ppm (cocklebur) [%]	pest or weed control at 500 ppm (pigweed) [%]	pest or weed control at 500 ppm (velvetleaf) [%]	plant injury at 500 ppm (rice [1]) [%]	plant injury at 500 ppm (wheat [2]) [%]	pest or weed control at 500 ppm (barnyardgrass [3]) [%]	pest or weed control at 500 ppm (crabgrass) [%]	pest or weed control at 500 ppm (yellow foxtail [4]) [%]	pest or weed control at 500 ppm (johnson grass) [%]	pest or weed control at 500 ppm (wild oats [5]) [%]	plant injury at 280.212 g/ha (cotton) [%]	plant injury at 280.212 g/ha (sugar beet) [%]	pest or weed control at 280.212 g/ha (jimsonweed) [%]	pest or weed control at 280.212 g/ha (annual morning glory) [%]	plant injury at 280.212 g/ha (corn) [%]	plant injury at 280.212 g/ha (rice [6]) [%]	plant injury at 280.212 g/ha (wheat [7]) [%]	pest or weed control at 280.212 g/ha (barnyardgrass [8]) [%]	other results
Cc1cc(C)n2nc(S(=O)(=O)Nc3ccccc3[N+](=O)[O-])nc2n1 [Compound 12]	100	80	100	100	95	25	0	80	25	20	55	0	95	98	0	50	50	10	0	40	pest or weed control at 280.212 g/ha (wild oats [9]): 0%; pest or weed control at 280.212 g/ha (yellow foxtail [10]): 0%; pest or weed control at 280.212 g/ha (yellow nutsedge): 50%; % NH4-N Remaining After 2 Weeks Incubation ([11]; 0.06 ppm): 40%; % NH4-N Remaining After 2 Weeks Incubation ([11]; 0.125 ppm): 70%; % NH4-N Remaining After 2 Weeks Incubation ([11]; 0.25 ppm): 74%; % NH4-N Remaining After 2 Weeks Incubation ([11]; 0.5 ppm): 83%; % NH4-N Remaining After 2 Weeks Incubation ([11]; 1 ppm): 87%
CCc1cccc(CC)c1NS(=O)(=O)c1nc2nc(C)cc(C)n2n1 [Compound 33]	60	40	60	10	80	0	0	0	0	0	60	0	20	50	40	0	0	0	40	50	pest or weed control at 280.212 g/ha (wild oats [9]): 40%; pest or weed control at 280.212 g/ha (yellow foxtail [10]): 0%; % NH4-N Remaining After 2 Weeks Incubation ([11]; 0.01 ppm): 8%; % NH4-N Remaining After 2 Weeks Incubation ([11]; 0.1 ppm): 42%; % NH4-N Remaining After 2 Weeks Incubation ([11]; 1 ppm): 77%; % NH4-N Remaining After 2 Weeks Incubation ([11]; 10 ppm): 88%
Cc1cc(C)n2nc(S(=O)(=O)Nc3ccccc3F)nc2n1 [Compound 8]	90	75	90	50	75	40	10	70	10	25	90	0	90	90	100	25	80	90	0	75	pest or weed control at 280.212 g/ha (wild oats [9]): 15%; pest or weed control at 280.212 g/ha (yellow foxtail [10]): 60%; pest or weed control at 280.212 g/ha (yellow nutsedge): 75%; % NH4-N Remaining After 2 Weeks Incubation ([11]; 0.06 ppm): 4%; % NH4-N Remaining After 2 Weeks Incubation ([11]; 0.125 ppm): 23%; % NH4-N Remaining After 2 Weeks Incubation ([11]; 0.25 ppm): 44%; % NH4-N Remaining After 2 Weeks Incubation ([11]; 0.5 ppm): 59%; % NH4-N Remaining After 2 Weeks Incubation ([11]; 1 ppm): 67%

Source: patent US4740233A, “Substituted 1,2,4-triazolo[1,5-a]-pyrimidine-2-sulfonamides and compositions and methods of controlling undesired vegetation and suppressing the nitrification of ammonium nitrogen in soil” (The Dow Chemical Company, priority 1986, dated 1988)
